Experimental data: publication PMC6520686, “Activation Studies of the γ-Carbonic Anhydrases from the Antarctic Marine Bacteria Pseudoalteromonas haloplanktis and Colwellia psychrerythraea with Amino Acids and Amines” (Marine Drugs, 2019)

Columns and labels:
PhaCA = tested on: T1, PhaCA; assay: stopped-flow CO2 hydration assay; format: biochemical, Pseudoalteromonas haloplanktis; conditions: activation constant (activator); CO2 substrate; TRIS pH 8.3, 0.1 M NaClO4, 25 °C; 15 min pre-incubation
T1 construct: purified recombinant gamma-class enzyme
Excerpt: stopped-flow CO2 hydration assay on PhaCA

CpsCA = tested on: T2, CpsCA; assay: stopped-flow CO2 hydration assay; format: biochemical, Colwellia psychrerythraea; conditions: activation constant (activator); CO2 substrate; TRIS pH 8.3, 0.1 M NaClO4, 25 °C; 15 min pre-incubation
T2 construct: purified recombinant gamma-class enzyme
Excerpt: stopped-flow CO2 hydration assay on CpsCA

Compound	KA (μM) * / PhaCA ^b (PhaCA) [µM]	KA (μM) * / CpsCA ^b (CpsCA) [µM]
N[C@@H](Cc1c[nH]c2ccccc12)C(=O)O [compound 7, L-Trp]	7.12	21.3
N[C@H](CCC(=O)O)C(=O)O [compound 23, D-Glu]	–	12.0
N[C@@H](Cc1ccc(O)cc1)C(=O)O [compound 9, L-Tyr]	1.02	19.5
N[C@H](Cc1ccccc1)C(=O)O [compound 4, D-Phe]	3.19	15.4
N[C@H](Cc1ccc(O)c(O)c1)C(=O)O [compound 6, D-DOPA]	0.72	11.2
NCCc1ccc(O)c(O)c1 [compound 13, Dopamine]	8.70	–
N[C@H](Cc1ccc(O)cc1)C(=O)O [compound 10, D-Tyr]	7.35	18.4
N[C@@H](Cc1ccc(O)c(O)c1)C(=O)O [compound 5, L-DOPA]	1.08	4.79
Nc1ccc(C[C@H](N)C(=O)O)cc1 [compound 11, 4-H2N-L-Phe]	3.27	17.2
NCCc1c[nH]cn1 [compound 12, Histamine]	6.48	20.6
NCc1ccccn1 [compound 15, 2-Pyridyl-methylamine]	2.39	21.5
